{"source": "patent US7109174B2", "about": "“Anticonvulsant derivatives useful for preventing the development of type II diabetes mellitus and syndrome X” (Ortho-McNeil Pharmaceutical, Inc., priority 2000, dated 2006)", "key": {"ob/ob mice": {"test_system": "ob/ob mice", "experiment": "ob/ob mice first study: topiramate in food for 120 days; plasma glucose, insulin, triglycerides, body weight", "format": "in vivo", "details": "for Blood concentration Glucose / Blood concentration Insulin / Blood concentration Triglycerides: mean ± SEM, N 10", "text": "It is known that ob/ob mice when allowed to eat ad libitum, develop abnormally high blood levels of insulin (hyperinsulinemia), glucose (hyperglycemia), lesions of the skin, and a high level of glycosylated hemoglobin, all of which are hallmark signs of Type II diabetes mellitus (R. R. HENRY, Ann. Intern. Med. 1996, 124, 97–103; G. W. EDELSON, Clin. Podiatr. Med. Surg. 1998, 15, 41–48; P. R. JOHNSON, M. R. GREENWOOD, B. A. HORWITZ and J. S. STERN, Annu. Rev. Nutr. 1991, 11, 325–353). Based on this knowledge of the ob/ob mouse model, two studies were designed to determine the effect of compounds of formula (I) in these mice models.\nIn the first study, a uniform population of mice was divided into three groups; in one group of control mice no topiramate was added to the food for the entire 120-day study period. In a second group topiramate was added to the food in amounts sufficient to give a daily dose of 20 mg/kg for 84 days, then a daily dose of 180 mg/kg for 36 days. A third group received a daily dose of 60 mg/kg for the entire 120 days. After completion of the 120-day period, the mice were sacrificed and blood was obtained and prepared for subsequent analyses of glucose, insulin and triglycerides in plasma."}, "[1]": {"test_system": "db/db mice (Homozygous Diabetic Mice)", "experiment": "Plasma glucose, triglycerides and body weight in female diabetic db/db mice, 11 days oral dosage", "format": "in vivo", "details": "for Plasma Glucose % Change / Plasma Triglycerides % Change / Change in Body Weight / Plasma Triglycerides Plasma Conc. / Plasma Glucose Plasma Conc.: 11 days; for Plasma Glucose % Change / Plasma Triglycerides % Change: versus vehicle; for Change in Body Weight / Plasma Triglycerides Plasma Conc. / Plasma Glucose Plasma Conc.: ± SEM", "protocol": "Six to seven week old female C57 BLK SIJ-m^+/^+ Lepr^db mice (db/db) and heterozygous littermates were purchased from The Jackson Laboratory (Bar Harbor, Me.). Upon arrival the mice were quarantined for 5 days and housed in pairs in shoe-box cages containing ALPHA-dri® bedding (Shepherd Speciality Papers, Inc., Kalamazoo, Mich.). The mice were maintained at an ambient temperature of 21 to 23° C. on a 12 hour-12 hour light-dark schedule and given access to water and food ad libitum. The diet was comprised of NIH (National Institutes of Health) Rat and Mouse/Auto 6F Reduced Fat Diet No. 5K52 (PMI Nutrition International Inc., Brentwood, Mo.).\nThe vehicle, used as a reference and for test compounds, was 0.5% methylcellulose dissolved in water. The compounds were either fully dissolved or uniformly suspended in the vehicle when administered to the mice.\nThe db/db mice were randomly separated into five groups of eight, as were the heterozygous littermates. The groups were as follows: one vehicle control group and four groups that each received one of four doses of topiramate (TPM) (10, 30, 100, or 300 mg/kg, respectively). Topiramate or vehicle was administered orally by gavage once a day during the 8th hour of the light portion of the light-dark cycle.\nBetween 18 and 24 hours after the last dose was administered, the mice were anesthetized with CO2/O2 (70:30) and blood from the retro-orbital sinus puncture was collected into 2 mL heparinized snap-top polypropylene tubes, then placed in ice.\nPlasma was separated from blood cells by centrifugation (15 minutes at 1600 g). For samples not assayed immediately, the plasma was transferred into 96-well plates and frozen at −70° C.\nGlucose and triglycerides were assayed using standard procedures for blood clinical laboratories. Specifically, the samples were analyzed using an automated Hitachi 717 autoanalyzer (Boehringer Mannheim/Hitachi 717 Autoanalyzer, Boehringer Mannheim Laboratory Systems Division, Indianapolis, Ind.). A statistical analysis of data for the drug-treated groups compared to data for the vehicle group was performed using the one-way analysis of variance (ANOVA) with Dunnett's Multiple Comparisons test.\nFollowing the procedure described above, the effect of topiramate on plasma glucose and triglyceride levels was determined for female diabetic db/db mice and littermates, following 11 days oral dosage, with results as listed in Table 3 and 4. Body weights are in Table 5. The abbreviation N represents the number of animals per study group."}, "[2]": {"details": "TPM 1: 20 mg/kg/day 84 days then 180 mg/kg/day 36 days in food"}, "[3]": {"details": "TPM 2: 60 mg/kg/day 120 days in food"}, "[4]": {"details": "100 mg/kg oral once a day, P < 0.01"}, "[5]": {"details": "300 mg/kg oral once a day, P < 0.01"}}}
{"smiles": "CC1(C)O[C@@H]2[C@@H](CO[C@@]3(COS(N)(=O)=O)OC(C)(C)O[C@@H]23)O1", "note": "[Topiramate, 2,3:4,5-bis-O-(1-methylethylidene)-β-D-fructopyranose sulfamate]", "values": [{"measurement": "Glucose percentage difference versus control", "setting": "ob/ob mice; [2]", "value": "−39", "unit": "%"}, {"measurement": "Insulin percentage difference versus control", "setting": "ob/ob mice; [2]", "value": "−37", "unit": "%"}, {"measurement": "Triglycerides percentage difference versus control", "setting": "ob/ob mice; [2]", "value": "−46", "unit": "%"}, {"measurement": "Blood concentration Glucose", "setting": "ob/ob mice; [2]", "value": "183 ± 33", "unit": "mg/dL"}, {"measurement": "Blood concentration Insulin", "setting": "ob/ob mice; [2]", "value": "6.4 ± 0.7", "unit": "ng/mL"}, {"measurement": "Blood concentration Triglycerides", "setting": "ob/ob mice; [2]", "value": "103 ± 5", "unit": "mg/dL"}, {"measurement": "Glucose percentage difference versus control", "setting": "ob/ob mice; [3]", "value": "−41", "unit": "%"}, {"measurement": "Insulin percentage difference versus control", "setting": "ob/ob mice; [3]", "value": "−21", "unit": "%"}, {"measurement": "Triglycerides percentage difference versus control", "setting": "ob/ob mice; [3]", "value": "−41", "unit": "%"}, {"measurement": "Blood concentration Glucose", "setting": "ob/ob mice; [3]", "value": "179 ± 11", "unit": "mg/dL"}, {"measurement": "Blood concentration Insulin", "setting": "ob/ob mice; [3]", "value": "8.0 ± 0.9", "unit": "ng/mL"}, {"measurement": "Blood concentration Triglycerides", "setting": "ob/ob mice; [3]", "value": "113 ± 8", "unit": "mg/dL"}, {"measurement": "body weight", "setting": "ob/ob mice; TPM 2 group (60 mg/kg/day), day 119", "value": "62.2 ± 1.2", "unit": "g"}, {"measurement": "body weight", "setting": "ob/ob mice; TPM 2 group (60 mg/kg/day), day −1 (beginning of administration)", "value": "48.4 ± 0.9", "unit": "g"}, {"measurement": "Body weight gain compared with control", "setting": "ob/ob mice; TPM 2 group (60 mg/kg/day), day −1 to day 119", "value": "Body weight gain for the control and TPM 2 groups from day −1 to day 119 was also similar."}, {"measurement": "Plasma Glucose % Change", "setting": "[1]; 10 mg/kg oral once a day", "value": "−27.4", "unit": "%"}, {"measurement": "Plasma Triglycerides % Change", "setting": "[1]; 10 mg/kg oral once a day", "value": "−18.9", "unit": "%"}, {"measurement": "Change in Body Weight", "setting": "[1]; 10 mg/kg oral once a day", "value": "1.7 ± 0.9", "unit": "g"}, {"measurement": "Plasma Triglycerides Plasma Conc.", "setting": "[1]; 10 mg/kg oral once a day", "value": "277 ± 30", "unit": "mg/dL"}, {"measurement": "Plasma Glucose Plasma Conc.", "setting": "[1]; 10 mg/kg oral once a day, P < 0.05", "value": "382 ± 46", "unit": "mg/dL"}, {"measurement": "decrease in blood glucose vs. control", "setting": "[1]; 10 mg/kg/day, P<0.05", "value": 27, "unit": "%"}, {"measurement": "Plasma Glucose % Change", "setting": "[1]; 30 mg/kg oral once a day", "value": "−34.6", "unit": "%"}, {"measurement": "Plasma Triglycerides % Change", "setting": "[1]; 30 mg/kg oral once a day", "value": "−11.2", "unit": "%"}, {"measurement": "Change in Body Weight", "setting": "[1]; 30 mg/kg oral once a day", "value": "2.6 ± 1.0", "unit": "g"}, {"measurement": "Plasma Triglycerides Plasma Conc.", "setting": "[1]; 30 mg/kg oral once a day", "value": "303 ± 29", "unit": "mg/dL"}, {"measurement": "Plasma Glucose Plasma Conc.", "setting": "[1]; 30 mg/kg oral once a day, P < 0.01", "value": "344 ± 31", "unit": "mg/dL"}, {"measurement": "decrease in blood glucose vs. control", "setting": "[1]; 30 mg/kg/day, P<0.01", "value": 35, "unit": "%"}, {"measurement": "Plasma Glucose % Change", "setting": "[1]; 100 mg/kg oral once a day", "value": "−36.6", "unit": "%"}, {"measurement": "Plasma Triglycerides % Change", "setting": "[1]; 100 mg/kg oral once a day", "value": "−33.7", "unit": "%"}, {"measurement": "Change in Body Weight", "setting": "[1]; 100 mg/kg oral once a day", "value": "1.5 ± 0.7", "unit": "g"}, {"measurement": "Plasma Glucose Plasma Conc.", "setting": "[1]; [4]", "value": "333 ± 42", "unit": "mg/dL"}, {"measurement": "Plasma Triglycerides Plasma Conc.", "setting": "[1]; [4]", "value": "227 ± 15", "unit": "mg/dL"}, {"measurement": "decrease in blood glucose vs. control", "setting": "[1]; 100 mg/kg/day, P<0.01", "value": 37, "unit": "%"}, {"measurement": "Plasma Glucose % Change", "setting": "[1]; 300 mg/kg oral once a day", "value": "−60.5", "unit": "%"}, {"measurement": "Plasma Triglycerides % Change", "setting": "[1]; 300 mg/kg oral once a day", "value": "−41.7", "unit": "%"}, {"measurement": "Change in Body Weight", "setting": "[1]; 300 mg/kg oral once a day", "value": "0.7 ± 2.4", "unit": "g"}, {"measurement": "Plasma Glucose Plasma Conc.", "setting": "[1]; [5]", "value": "207 ± 41", "unit": "mg/dL"}, {"measurement": "Plasma Triglycerides Plasma Conc.", "setting": "[1]; [5]", "value": "199 ± 16", "unit": "mg/dL"}, {"measurement": "decrease in blood glucose vs. control", "setting": "[1]; 300 mg/kg/day, P<0.01", "value": 61, "unit": "%"}, {"measurement": "decrease in plasma triglyceride levels versus diabetic controls", "setting": "[1]; 100 and 300 mg/kd/day, P<0.01", "value": "up to 42%"}]}
